From patent US20250179057A1, “MEK IMMUNE ONCOLOGY INHIBITORS AND THERAPEUTIC USES THEREOF” (Immuneering Corporation, priority 2022, published 2025)
Structures can show the parent of a compound that is named as a salt. Where two headings read alike, the source gives them in different places.

How the values were obtained:
[1] = tested on: phospho-MEK in A549 cells; assay: Cell-based pMEK (pMEK:tMEK, CRAF bypass) in A549 cells; settings: for A549-CRAF BP 100 nM, 2 h: pMEK to total MEK normalized to DMSO control
In short: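 Cells (A549 or A375) exposed 2 h to compounds at varying concentrations in duplicate, then lysed; lysates set to 1.5 mg/mL for pMEK by quantitative Western (Jess). Phospho-MEK/total MEK ratio normalized to DMSO control.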

[2] = Mouse liver microsome stability (t1/2, Clint); settings: for half-life at 1 μM / microsomal CLint at 1 μM: mouse, liver microsomes, pH 7.4
[3] = Human liver microsome stability (t1/2, Clint)
[4] = tested on: phospho-ERK in A375 cells; assay: Cell-based pERK (pERK:tERK) in A375 cells; settings: for pERK/tERK ratio normalized to DMSO: A375 (BRAF p.V600E), 100 nM
Description: Materials and Methods: A549 or A375 cells were seeded in 6-well plates at an appropriate seeding density on day 0. On day 2 or 3, after checking the health and confluency of cells, the media was aspirated and replaced with 1 mL media containing a predetermined concentration of compound and incubated for 2 hours. After 2 hours, the media was aspirated, and the cells washed 2 times with cold PBS. Cells were lysed on ice, with 50 uL 1×CST lysis buffer +1 mM PMSF for 5 minutes. After 5 minutes, cells were removed using a scraper and transferred to cold 1.5 mL tubes, and centrifuged for 10 min, 4° C., 14,000×g. Supernatant was gently removed and snap frozen in liquid nitrogen. Protein concentration of the lysate was determined using Bradford Reagent (analyzed using SpectraMax M2E) and diluted to 1 mg/mL or pERK or 1.5 mg/mL for pMEK analysis. […] All dilutions were in Milk-free antibody diluent.
A549 or […] cells were treated in duplicate for two hours with compounds at varying concentrations. After two hours, the cells were lysed, snap frozen, and stored at −80° C. After storage, the lysate was quantified with the Bradford assay. Before the lysates were prepared to run on the Jess, the lysates were diluted to 1 mg/mL for pERK analysis and 1.5 mg/mL pMEK analysis using quantitative Western blotting. ERK and MEK phosphorylation levels were estimated by taking the ratio of phospho-protein to total protein and normalizing to the DMSO control.
(§1) The nine models are described in Table 16.

CYP2C8 = target: T1, CYP2C8 (Homo sapiens, UniProt P10632); assay: in vitro; settings: microsomes, pH 7.4
T1 sequence (P10632 1-490): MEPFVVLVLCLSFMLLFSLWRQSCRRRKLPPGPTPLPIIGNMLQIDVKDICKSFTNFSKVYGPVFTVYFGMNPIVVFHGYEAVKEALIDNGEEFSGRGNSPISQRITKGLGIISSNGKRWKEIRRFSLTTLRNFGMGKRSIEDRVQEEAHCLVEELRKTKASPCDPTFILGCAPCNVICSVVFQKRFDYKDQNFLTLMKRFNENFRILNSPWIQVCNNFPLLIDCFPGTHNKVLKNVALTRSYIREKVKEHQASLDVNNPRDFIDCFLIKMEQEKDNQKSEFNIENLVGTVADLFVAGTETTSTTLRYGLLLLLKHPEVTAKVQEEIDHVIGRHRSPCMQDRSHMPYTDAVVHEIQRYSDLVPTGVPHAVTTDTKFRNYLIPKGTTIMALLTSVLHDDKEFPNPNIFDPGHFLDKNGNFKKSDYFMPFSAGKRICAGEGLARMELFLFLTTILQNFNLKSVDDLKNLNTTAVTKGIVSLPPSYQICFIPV

CYP2B6 = target: T2, CYP2B6 (Homo sapiens, UniProt P20813); assay: in vitro; settings: microsomes, pH 7.4
T2 sequence (P20813 1-491): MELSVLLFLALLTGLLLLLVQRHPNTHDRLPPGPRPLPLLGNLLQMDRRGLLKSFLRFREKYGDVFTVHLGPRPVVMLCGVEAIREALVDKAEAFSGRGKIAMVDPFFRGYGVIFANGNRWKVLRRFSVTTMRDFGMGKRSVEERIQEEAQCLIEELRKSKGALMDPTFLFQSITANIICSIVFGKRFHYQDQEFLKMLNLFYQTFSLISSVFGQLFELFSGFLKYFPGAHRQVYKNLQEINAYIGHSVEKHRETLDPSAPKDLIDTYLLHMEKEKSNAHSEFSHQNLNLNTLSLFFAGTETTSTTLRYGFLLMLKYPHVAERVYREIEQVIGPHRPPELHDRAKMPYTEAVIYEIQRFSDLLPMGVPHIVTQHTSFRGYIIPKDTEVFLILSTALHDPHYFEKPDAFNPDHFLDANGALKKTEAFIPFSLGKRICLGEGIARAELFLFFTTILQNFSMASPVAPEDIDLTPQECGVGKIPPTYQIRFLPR

[5] = tested on: phospho-MEK in MeWo cells; assay: pMEK/tMEK ratio in MeWo melanoma model; type: cell-based; settings: MeWo (NF1 LoF); 100 nM
Description: (§2) Compound (drug) treatment: Cells were plated in a 6-well plate at a density of 250,000-300,000 cells/well in 3 mL media and incubated 37° C. in a humidified, 5% CO2 incubator. […] These solutions were added to the cells (3 uL/well), mixed by swirling the plate, and incubated at 37° C. in a humidified, 5% CO2 incubator for 2 hours.
(§3) Cell lysis and protein estimation: Cells were washed with PBS, and scraped in 50 μL of lysis buffer containing protease and phosphatase inhibitors. Cell lysates were stored at −20° C. Cell lysates were thawed and spun at 12,000 rpm for one minute, 3 ul of the supernatant was added to 500 μL of Coomassie blue reagent following by 500 μL of water. […] Protein standards were used (0-20 mg/mL) to calculate protein concentrations of test samples.
(§4) All samples were heated at 95° C. for 5 minutes, cooled to room temperature and spun down. […] After the run, gel was removed and protein transfer was done using iBlot for 7 minutes, as per manufacturer's recommendations. After the transfer, nitrocellulose membrane was incubated on a shaker in 5 mL of blocking buffer at room temperature for 1 hr. The blot was then incubated overnight on a shaker in 5 ml of blocking buffer containing 0.2% Tween-20 and primary antibody, at room temperature. Anti-phospho-STAT3 antibody was used at a dilution of 1:500, the other 3 primary antibodies were used at a dilution of 1:1000.
(§5) Next day, the blot was washed 3 times for 10 min each with 10 mL of TBST followed by incubation on a shaker in 5 ml of blocking buffer containing 0.2% Tween-20 and 0.5 ul of the IRDye labeled secondary antibodies, diluted 1:10000, at room temperature for 1 hr. The blot was then washed 3 times for 10 min each with 10 mL of TBST and dried between sheets of paper towels. Imaging was done using LICOR's Odyssey imaging system, quantitation was done using their software, Image Studio version 3.1.
as §1

[6] = tested on: phospho-MEK in MM415 cells; assay: pMEK/tMEK ratio in MM415 melanoma model; type: cell-based
Description: as §2, §3, §4, §5, §1

[7] = 1 μM, 0.5 mg/ml microsomal protein
[8] = human, liver microsomes, pH 7.4

Which “A549-CRAF BP 100 nM, 2 h” value [1] does the source give for `CNS(=O)(=O)Nc1cccc(Cc2c(CN(C)C)c3ccc(OC(=O)N(C)C)cc3oc2=O)c1F` [Compound 9] here?
The value was 44.9 (mean, n = 8).

And the “CRAF A549 pMEK:tMEK [100 nM; 2 hr]” value [1]?
Its value is 0.47.

And the “Mouse Clint” value [2, 7]?
Its value is 32 µL/min/mg.

And the “Mouse Microsome (t1/2 min)” value [2, 7]?
Its value is 44 min.

What about the “Human Clint” value [3, 7] of the same compound?
The value was 40 µL/min/mg.

And the “Human Microsome (t1/2 min)” value [3, 7]?
Its value is 35 min.

What about the “A375 pERK:tERK ratio [10 nM; 2 hr]” value [4] of the same compound?
The value was 0.71.

Which “A549-CRAF BP 100 nM, 2 h” value [1] does the source give for `CNS(=O)(=O)Nc1cccc(Cc2c(CN(C)C)c3cc(F)c(OC(=O)N(C)C)cc3oc2=O)c1F` [Compound 25] here?
The value was 71.

With `CNS(=O)(=O)Nc1cccc(Cc2c(CN3CCNCC3)c3cc(F)c(OC(=O)N(C)C)cc3oc2=O)c1F` [Compound 134] as the compound, how does the “A549-CRAF BP 100 nM, 2 h” value [1] read?
The value was 26.9.

For `CCN(C)Cc1c(Cc2cccc(NS(=O)(=O)NC)c2Cl)c(=O)oc2cc(OC(=O)N(C)C)ccc12` [Compound 245, 3-(2-chloro-3-((N-methylsulfamoyl)amino)benzyl)-4-((ethyl(methyl)amino)methyl)-2-oxo-2H-chromen-7-yl dimethylcarbamate], which inhibition at 30 min, 10 µM (CYP2C8) is on record?
Its inhibition at 30 min, 10 µM is 30.4%.

What about the inhibition at 30 min, 10 µM (CYP2B6) of the same compound?
Its inhibition at 30 min, 10 µM is 6%.

For `CNS(=O)(=O)Nc1cccc(Cc2c(CN3CCNCC3)c3ccc(OC(=O)N(C)C)cc3oc2=O)c1Cl` [Compound 246, 3-(2-chloro-3-((N-methylsulfamoyl)amino)benzyl)-2-oxo-4-(piperazin-1-ylmethyl)-2H-chromen-7-yl dimethylcarbamate hydrochloride], which inhibition at 30 min, 10 µM (CYP2C8) is on record?
Its inhibition at 30 min, 10 µM is 10.5%.

What about the inhibition at 30 min, 10 µM (CYP2B6) of the same compound?
Its inhibition at 30 min, 10 µM is 29.7%.

Which inhibition at 30 min, 10 µM (CYP2C8) does the source give for `CNS(=O)(=O)Nc1cccc(Cc2c(CN3CCNCC3)c3cc(Cl)c(OC(=O)N(C)C)cc3oc2=O)c1Cl` [Compound 256, 6-chloro-3-(2-chloro-3-((N-methylsulfamoyl)amino)benzyl)-2-oxo-4-(piperazin-1-ylmethyl)-2H-chromen-7-yl dimethylcarbamate hydrochloride] here?
Its inhibition at 30 min, 10 µM is 97%.

What about the inhibition at 30 min, 10 µM (CYP2B6) of the same compound?
Its inhibition at 30 min, 10 µM is 1.9%.

For `CCS(=O)(=O)Nc1cccc(Cc2c(CN3CCNCC3)c3cc(Cl)c(OC(=O)N(C)C)cc3oc2=O)c1Cl` [Compound 257, 6-chloro-3-(2-chloro-3-(ethylsulfonamido)benzyl)-2-oxo-4-(piperazin-1-ylmethyl)-2H-chromen-7-yl dimethylcarbamate hydrochloride], which inhibition at 30 min, 10 µM (CYP2C8) is on record?
Its inhibition at 30 min, 10 µM is 97.5%.

And the inhibition at 30 min, 10 µM (CYP2B6)?
Its inhibition at 30 min, 10 µM is 13.7%.

Which inhibition at 30 min, 10 µM (CYP2C8) does the source give for `CNS(=O)(=O)Nc1cccc(Cc2c(CN(C)C)c3ccc(OC(=O)N(C)C)cc3oc2=O)c1Cl` [Compound 274, 3-(2-chloro-3-((N-methylsulfamoyl)amino)benzyl)-4-((dimethylamino)methyl)-2-oxo-2H-chromen-7-yl dimethylcarbamate] here?
The inhibition at 30 min, 10 µM was 11.9%.

And the inhibition at 30 min, 10 µM (CYP2B6)?
The inhibition at 30 min, 10 µM was -0.6%.

And the “pMEK/tMEK ratio normalized to DMSO” value [5]?
The value was 0.904.

What about the “pMEK/tMEK ratio normalized to DMSO” value ([6]; MM415 (NRAS p.Q61L), 100 nM) of the same compound?
Its value is 0.58.

What about the “pERK/tERK ratio normalized to DMSO” value [4] of the same compound?
The value was 0.477.

For `Cn1cnc2c(F)c(Nc3ccc(Br)cc3Cl)c(C(=O)NOCCO)cc21` [Reference-1, Selumetinib], which “CRAF A549 pMEK:tMEK [100 nM; 2 hr]” value [1] is on record?
The value was 2.09.

And the half-life at 1 μM [2]?
Its half-life at 1 μM is 18 min.

What about the microsomal CLint at 1 μM [2] of the same compound?
Its microsomal CLint at 1 μM is 78 µL/min/mg.

What about the “pMEK/tMEK ratio normalized to DMSO” value [5] of the same compound?
Its value is 5.483.

What about the half-life at 1 μM [3, 8] of the same compound?
Its half-life at 1 μM is > 90 min.

And the “pMEK/tMEK ratio normalized to DMSO” value [6]?
Its value is 2.386.

What about the “A375 pERK:tERK ratio [10 nM; 2 hr]” value [4] of the same compound?
The value was 0.59.

And the “pERK/tERK ratio normalized to DMSO” value [4]?
The value was 0.199.

With `CNS(=O)(=O)Nc1nccc(Cc2c(C)c3ccc(Oc4ncccn4)cc3oc2=O)c1F` [Reference-2, reference compound] as the compound, how does the “CRAF A549 pMEK:tMEK [100 nM; 2 hr]” value [1] read?
The value was 2.09.

What about the half-life at 1 μM [2] of the same compound?
The half-life at 1 μM was 18 min.

What about the microsomal CLint at 1 μM [2] of the same compound?
The microsomal CLint at 1 μM was 78 µL/min/mg.

What about the microsomal CLint at 1 μM [3, 8] of the same compound?
Its microsomal CLint at 1 μM is < 15 µL/min/mg.
